The results in this text go back to patent US9809537B2, “Glycosidase inhibitors and uses thereof” (Alectos Therapeutics Inc., priority 2012, dated 2017).

The target of data set [1] is T1, human O-GlcNAcase (Homo sapiens, UniProt O60502).
T1 sequence (O60502 1-916): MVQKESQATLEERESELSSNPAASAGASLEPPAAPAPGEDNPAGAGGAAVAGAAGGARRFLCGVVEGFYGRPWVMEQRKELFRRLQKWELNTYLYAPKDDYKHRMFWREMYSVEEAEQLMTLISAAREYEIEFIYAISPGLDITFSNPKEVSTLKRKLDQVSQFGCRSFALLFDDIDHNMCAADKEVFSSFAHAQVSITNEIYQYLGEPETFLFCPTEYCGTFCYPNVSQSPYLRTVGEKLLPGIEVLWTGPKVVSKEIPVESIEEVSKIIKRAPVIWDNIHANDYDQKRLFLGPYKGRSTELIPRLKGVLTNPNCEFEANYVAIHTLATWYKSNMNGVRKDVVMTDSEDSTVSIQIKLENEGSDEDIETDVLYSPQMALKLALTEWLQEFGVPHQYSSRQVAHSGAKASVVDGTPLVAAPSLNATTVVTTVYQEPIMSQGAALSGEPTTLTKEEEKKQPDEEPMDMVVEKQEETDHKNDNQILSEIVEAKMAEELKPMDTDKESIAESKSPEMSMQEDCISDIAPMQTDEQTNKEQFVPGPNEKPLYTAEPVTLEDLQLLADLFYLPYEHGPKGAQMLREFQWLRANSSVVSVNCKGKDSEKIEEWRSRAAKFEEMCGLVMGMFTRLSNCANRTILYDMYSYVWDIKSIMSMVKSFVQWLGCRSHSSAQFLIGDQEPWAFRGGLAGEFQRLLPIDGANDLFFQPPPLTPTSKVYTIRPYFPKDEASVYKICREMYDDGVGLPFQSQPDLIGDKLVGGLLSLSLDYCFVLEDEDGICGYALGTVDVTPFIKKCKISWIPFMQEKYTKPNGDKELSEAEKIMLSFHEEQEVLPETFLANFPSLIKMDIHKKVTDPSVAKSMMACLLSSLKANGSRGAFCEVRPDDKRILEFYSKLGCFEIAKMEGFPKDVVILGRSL
In words: Fluorescence-based assay for KI values for inhibition of O-GlcNAcase activity. In kind it is biochemical. As to conditions: purified human O-GlcNAcase, 4-methylumbelliferyl GlcNAc substrate, pH 7.0, Cheng-Prusoff; read-out: Fluorescence-based hOGA Ki. As to the method: Assay for Determination of KI Values for Inhibition of O-GlcNAcase Activity
Experimental Procedure for Kinetic Analyses:
Enzymatic reactions were carried out in a reaction containing 50 mM NaH2PO4, 100 mM NaCl and 0.1% BSA (pH 7.0) using 2 mM 4-Methylumbelliferyl N-acetyl-β-D-glucosaminide dihydrate (Sigma M2133) dissolved in ddH2O, as a substrate. The amount of purified human O-GlcNAcase enzyme used in the reaction was 0.7 nM. Test compound of varying concentrations was added to the enzyme prior to initiation of the reaction. The reaction was performed at room temperature in a 96-well plate and was initiated with the addition of substrate. The production of fluorescent product was measured every 60 sec for 45 min with a Tecan Infinite M200 plate-reader with excitation at 355 nm and emission detected at […], with 4-Methylumbelliferone (Sigma M1381) used to produce a standard curve. The slope of product production was determined for each concentration of compound tested and plotted, using standard curve fitting algorithms for sigmoidal dose response curves. The values for a four parameter logistic curve fit of the data were determined.
KI values were determined using the Cheng-Prusoff equation; the Km of O-GlcNAcase for substrate was 0.2 mM.

Data set [2] in a line: Apparent permeability (Papp), bi-directional transport. The class given is in vitro ADME. The following applies: pig, LLC-PK1, t=3 h, average of A to B and B to A, read-out: Papp LLC-PK1 cells. On the procedure: Assay for Determination of Apparent Permeability (Papp)
Bi-directional transport is evaluated in LLC-PK1 cells in order to determine apparent permeability (Papp). LLC-PK1 cells can form a tight monolayer and therefore can be used to assess vectorial transport of compounds from basolateral to apical (B→A) and from apical to basolateral (A→B).
To determine Papp, LLC-PK1 cells are cultured in 96-well transwell culture plates (Millipore). Solutions containing the test compounds (1 μM) are prepared in Hank's Balanced Salt Solution with 10 mM HEPES. Substrate solution (150 μL) is added to either the apical (A) or the basolateral (B) compartment of the culture plate, and buffer (150 μL) is added to the compartment opposite to that containing the compound. At t=3 h, 50 μL samples are removed from both sides of monolayers dosed with test compound and placed in 96 well plates, scintillant (200 μL) or internal standard (100 μL labetolol 1 μM) is added to the samples and concentration is determined by liquid scintillation counting in a MicroBeta Wallac Trilux scintillation counter (Perkin Elmer Life Sciences, Boston, Mass.) or by LCMS/MS (Applied Biosystems SCIEX API 5000 triple quadruple mass spectrometer). [^3H]Verapamil (1 μM) is used as the positive control. The experiment is performed in triplicate.
The apparent permeability, Papp, is calculated by the following formula for samples taken at t=3 h:
[formula] Where: Volume of Receptor Chamber is 0.15 mL; Area of membrane is 0.11 cm^2; the Initial Concentration is the sum of the concentration measured in the donor plus concentration measured in receiver compartments at t=3 h; A in Concentration is concentration in the receiver compartment at 3 h; and A in Time is the incubation time (3×60×60=10800 s). Papp is expressed as 10^−6 cm/s. The Papp (LLC-PK1 cells) are the average of the Papp for transport from A to B and Papp for transport from B to A at t=3 h: […]

As to `CC(=O)NC[C@@H]1[C@@H](O)[C@H](O)[C@@H](CO)N1CCCc1ccccc1` [Example 1, N-(((2R,3R,4R,5R)-3,4-dihydroxy-5-(hydroxymethyl)-1-(3-phenylpropyl)pyrrolidin-2-yl)methyl)acetamide], in data set [1], the inhibition constant Ki (as a rule, the equilibrium dissociation constant of an inhibitor or competing ligand from its target) was 369 nM.
As for `COc1ccc(CCCN2[C@H](CO)[C@@H](O)[C@H](O)[C@H]2CNC(C)=O)cc1` [Example 2, N-(((2R,3R,4R,5R)-3,4-dihydroxy-5-(hydroxymethyl)-1-(3-(4-methoxyphenyl)propyl)pyrrolidin-2-yl)methyl)acetamide], the Ki in data set [1] was 106 nM. Also, the Papp (in general, the rate of passage across a membrane or cell layer, normalised by area and donor concentration) at 3 h, 1 μM in data set [2] turned out to be 2.6 ×10⁻⁶ cm/s.
On to `CC(=O)NC[C@@H]1[C@@H](O)[C@H](O)[C@@H](CO)N1CCc1ccc(-c2ccccc2)cc1` [Example 4, N-(((2R,3R,4R,5R)-1-(2-([1,1′-biphenyl]-4-yl)ethyl)-3,4-dihydroxy-5-(hydroxymethyl)pyrrolidin-2-yl)methyl)acetamide], for which the Ki in data set [1] was found to be 79 nM. In addition, the apparent permeability coefficient (Papp) at 3 h, 1 μM in data set [2] was 4.4 ×10⁻⁶ cm/s.
The like results for `CC(=O)NC[C@@H]1[C@@H](O)[C@H](O)[C@@H](CO)N1CCCCc1ccccc1` [Example 5, N-(((2R,3R,4R,5R)-3,4-dihydroxy-5-(hydroxymethyl)-1-(4-phenylbutyl)pyrrolidin-2-yl)methyl)acetamide] were, in that order, 172 nM and < 1.6 ×10⁻⁶ cm/s.
In the case of `CC(=O)NC[C@@H]1[C@@H](O)[C@H](O)[C@@H](CO)N1CCC(c1ccccc1)c1ccccc1` [Example 6, N-(((2R,3R,4R,5R)-1-(3,3-diphenylpropyl)-3,4-dihydroxy-5-(hydroxymethyl)pyrrolidin-2-yl)methyl)acetamide], the Ki in data set [1] is 41 nM.
On the same count and under the same terms, as for `CC(=O)NC[C@@H]1[C@@H](O)[C@H](O)[C@@H](CO)N1Cc1cccnc1` [Example 7, N-(((2R,3R,4R,5R)-3,4-dihydroxy-5-(hydroxymethyl)-1-(pyridin-3-ylmethyl)pyrrolidin-2-yl)methyl)acetamide], the figure is 2690 nM; as for `CC(=O)NC[C@@H]1[C@@H](O)[C@H](O)[C@@H](CO)N1Cc1ccccn1` [Example 8, N-(((2R,3R,4R,5R)-3,4-dihydroxy-5-(hydroxymethyl)-1-(pyridin-2-ylmethyl)pyrrolidin-2-yl)methyl)acetamide], 3020 nM.
The same measure, in the same setting: as for `CC(=O)NC[C@@H]1[C@@H](O)[C@H](O)[C@@H](CO)N1Cc1ccc(-c2ccccc2)cc1` [Example 9, N-(((2R,3R,4R,5R)-1-([1,1′-biphenyl]-4-ylmethyl)-3,4-dihydroxy-5-(hydroxymethyl)pyrrolidin-2-yl)methyl)acetamide], the figure is 4560 nM; as for `CNC(=O)C[C@@H]1[C@@H](O)[C@H](O)[C@@H](CO)N1CCCc1ccccc1` [Example 10, 2-((2R,3R,4R,5R)-3,4-dihydroxy-5-(hydroxymethyl)-1-(3-phenylpropyl)pyrrolidin-2-yl)-N-methylacetamide], 55 nM.
On the same count and under the same terms, as for `CCNC(=O)C[C@@H]1[C@@H](O)[C@H](O)[C@@H](CO)N1CCCc1ccc(OC)cc1` [Example 11, 2-((2R,3R,4R,5R)-3,4-dihydroxy-5-(hydroxymethyl)-1-(3-(4-methoxyphenyl)propyl)pyrrolidin-2-yl)-N-ethylacetamide], the figure is 132 nM; as for `CCNC(=O)C[C@@H]1[C@@H](O)[C@H](O)[C@@H](CO)N1CCC(c1ccccc1)c1ccccc1` [Example 12, 2-((2R,3R,4R,5R)-1-(3,3-diphenylpropyl)-3,4-dihydroxy-5-(hydroxymethyl)pyrrolidin-2-yl)-N-ethylacetamide], 60 nM.
In the case of `CNC(=O)C[C@@H]1[C@H](O)[C@H](O)[C@@H](CO)N1CCCc1ccccc1` [Example 13, 2-((2R,3S,4R,5R)-3,4-dihydroxy-5-(hydroxymethyl)-1-(3-phenylpropyl)pyrrolidin-2-yl)-N-methylacetamide], in data set [1], the Ki turned out to be 8.3 nM.
The same measure, in the same setting: for `CC(=O)NC[C@H]1N[C@H](CO)[C@@H](O)[C@@H]1O` [reference compound] the value was 108 nM; for `CCCN1C(CNC(C)=O)[C@@H](O)[C@H](O)[C@H]1CO` (stereo partly drawn) [reference compound], 2020 nM.
Still for that read-out and setting: for `CCCCN1C(CNC(C)=O)[C@@H](O)[C@H](O)[C@H]1CO` (stereo partly drawn) [reference compound] the value was 1030 nM.
For `CCCCCCN1C(CNC(C)=O)[C@@H](O)[C@H](O)[C@H]1CO` (stereo partly drawn) [reference compound], the Ki in data set [1] is 619 nM. Moreover, in data set [2], the Papp at 3 h, 1 μM was < 1.6 ×10⁻⁶ cm/s.
Take `CC(=O)NCC1[C@@H](O)[C@H](O)[C@@H](CO)N1CCc1ccccc1` (stereo partly drawn) [reference compound]: the Ki in data set [1] was 343 nM.
